These results are taken from article PMC12785453, “Oral Fluid Concentrations and Pharmacological Effects of Clephedrone and Methylone in Humans” (International Journal of Molecular Sciences, 2025).

In data set [1] the test system is healthy volunteers. Description: Subjective effects, ARCI short form, clephedrone study. The data set is classed as in vivo, humans. Particulars: 100 or 150 mg oral, n=8. The source says: (§1) The study evaluating the acute effects of clephedrone was designed as a non-controlled, prospective, observational, and naturalistic study. The procedures and evaluations included in this study have been described in previous studies evaluating other synthetic cathinones (mephedrone, methylone, alpha-PVP, NEP, HEXEN), phenethylamines (2C-B and 2C-E), or synthetic cannabinoids (JWH-122, JWH-210, UR-144).
(§2) This study consisted of one experimental session in which participants (N = 8; 6 women, 2 men) selected their oral dose of clephedrone based on their drug use experience and preferences. According to their dose selection, 3 women and 1 man ingested 100 mg of clephedrone, while the remaining 3 women and 1 man opted for a higher dose of 150 mg. […] Participants were recruited by word of mouth by the harm reduction organization Energy Control in Barcelona (Associació Benestar i Desenvolupament, ABD).
(§3) Subjective effects were evaluated with visual analog scales (VAS), the short form of the Addiction Research Center Inventory (ARCI), and the Evaluation of Subjective Effects of Substances with Abuse Potential questionnaire (VESSPA-SSE). In addition, the Sensitivity to Drug Reinforcement Questionnaire (SDRQ) and a pharmacological identification class questionnaire were used in the controlled study administering methylone.
The validated ARCI 49-item short form was used to evaluate and discriminate the subjective following five subscales that correspond to different classes of drugs of abuse: pentobarbital-chlorpromazine-alcohol group (PCAG) is susceptible to sedative effects, morphine-benzedrine group (MBG) is susceptible to euphoric effects, lysergic acid diethylamide (LSD) is susceptible to dysphoria and somatic symptoms, benzedrine (BG) is susceptible to intellectual efficiency and energy, and amphetamine (A) is susceptible to amphetamine-like effects.
(§4) Participants included in the naturalistic clephedrone study completed VAS at baseline, 0.50, 1, 1.5, 2, 3, 4, and 5 h, and ARCI and VESSPA at baseline, 1, 2, 3, 4, and 5 h after self-administering clephedrone. In the controlled study, VAS was performed at baseline and 0.25, 0.50, 0.75, 1, 1.5, 2, 3, 4, 6, 8, 10, and 24 h, and ARCI and VESSPA at baseline and 1, 2, 3, 4, 6, 8, and 10 h after administering methylone. Participants completed SDRQ and VAS sexual desire and arousal at baseline, 1 and 10 h, and the pharmacological class identification questionnaire at 8 h.
(§5) For statistical analysis, values of physiological (SBP, DBP, HR, and T) and subjective effects (VAS, ARCI, and VESSPA-SSE) were baseline–adjusted. Maximum effects (Emax) and the time needed to reach maximum effects (Tmax) were determined, and the area under the curve up to 5 h (AUC0–5h) for clephedrone and up to 6 h (AUC0–6h) for methylone was calculated using the trapezoidal rule. Emax and AUC values are presented as mean ± standard deviation, whereas Tmax is presented in median (range).
(§6) To find possible significant changes through the time course compared to baseline, a Dunnett multiple comparison test was carried out to compare each time point with baseline in both drug conditions. For clephedrone the comparisons were 0–0.5 h, 0–1 h, 0–1.5 h, 0–2 h, 0–3 h, 0–4 h and 0–5 h, and for methylone this analysis included 0–0.25 h, 0–0.5 h, 0–0.75 h, 0–1 h, 0–1.5 h, 0–2 h, 0–3 h, 0–4 h and 0–6 h. Given their different study designs, no comparative analysis between the time courses of both synthetic cathinones was conducted.

A short description of data set [2]: Oral fluid concentrations of clephedrone (GC-MS/MS). Particulars: both sexes, human, 100 or 150 mg oral. Type of data set: in vivo, humans. As for the experimental part: as §2
In both studies, oral fluid samples for the quantification of clephedrone and methylone concentration were collected using Salivette standard tubes. For clephedrone, oral fluid samples were collected at baseline, 0.50, 1, 1.5, 2, 3, 4, and 5 h, whereas for methylone, they were collected at baseline, 0.25, 0.50, 0.75, 1, 1.5, 2, 3, 4, 6, 8, and 10 h. After collection, all samples were centrifuged and stored frozen at −20 °C until analysis. Clephedrone oral fluid concentrations were determined using a previously validated gas chromatography coupled to mass spectrometry systems (GC-MS/MS). Methylone was quantified via liquid chromatography–tandem mass spectrometry (LC–MS/MS).
For oral fluid concentrations of clephedrone and methylone, only a descriptive analysis was performed to obtain the main pharmacokinetics data, including the maximum concentration (Cmax), the time required to reach maximum concentrations (Tmax), and AUC up to 5 h (AUC0–5h) for clephedrone and up to 6 h (AUC0–6h) for methylone. These parameters were calculated using the Pharmacokinetic Functions for Microsoft Excel (Joel Usansky, Atul Desai, and Diane Tang-Liu, Department of Pharmacokinetics and Drug Metabolism, Allergan, Irvine, CA, USA). Oral cortisol concentrations after clephedrone were analyzed using Dunnett’s multiple comparison test (each time point with baseline).

Data set [3] deals with healthy volunteers. Briefly: Subjective effects, VESSPA-SSE, clephedrone study. Particulars: 100 or 150 mg oral, n=8. The data set is classed as in vivo, humans.
Excerpt: as §1, §2, §3
The VESSPA-SSE questionnaire, used to evaluate the subjective effects of stimulant drugs, The questionnaire includes 36-items and consists of six subscales that measure sedation (S), psychosomatic anxiety (ANX), changes in perception (CP), pleasure and sociability (SOC), activity and energy (ACT), and psychotic symptoms (PS).
as §4, §5, §6

Data set [4] concerns humans. The note with it: cited from earlier work.

As to `CNC(C)C(=O)c1ccc(Cl)cc1` (stereo not shown) [Clephedrone, 4-chloromethcathinone], in data set [1], the “ARCI A (amphetamine-like effects) Emax” value is reported as 5.88 ± 0.99 points, the “ARCI BG (intellectual efficiency) Emax” value came out at 4.13 ± 0.99 points, the “ARCI LSD (dysphoria) Emax” value came to 1.25 ± 2.19 points and the “ARCI MBG (euphoria) Emax” value amounted to 12.13 ± 2.03 points. For the same molecule, in data set [1], the “ARCI PCAG (sedation) Emax” value was 0.88 ± 4.19 points. Besides, in data set [1] (AUC0–5h), the “ARCI A (amphetamine-like effects) AUC0-5/6 h” value turned out to be 18.75 ± 3.54 points·h, the “ARCI BG (intellectual efficiency) AUC0-5/6 h” value is listed as 10.56 ± 5.30 points·h, the “ARCI LSD (dysphoria) AUC0-5/6 h” value came to 1.81 ± 4.39 points·h and the “ARCI MBG (euphoria) AUC0-5/6 h” value is recorded as 37.56 ± 11.83 points·h. For the same molecule, the “ARCI PCAG (sedation) AUC0-5/6 h” value in data set [1] (AUC0–5h) is recorded as “–3.31 ± 5.44 points·h”. Besides, in data set [2] (n=8), the Cmax was 6410 ± 3490 ng/mL and the Tmax is 3 h. For the same molecule, the AUC(0-t) in data set [2] (n=8, read-out: Oral fluid AUC0–5 h) was determined as 10700 ng·h/mL. In data set [3], the “VESSPA ANX (psychosomatic anxiety) Emax” value was 1.33 ± 0.45 points, the “VESSPA CP (changes in perception) Emax” value was 0.02 ± 0.06 points, the “VESSPA CP (changes in perception) Tmax” value was 0.0 (0.0–1.0) h and the “VESSPA S (sedation) Emax” value is given as 0.90 ± 0.73 points. In data set [3], the “VESSPA SOC (pleasure and sociability) Emax” value turned out to be 2.85 ± 0.47 points; the “VESSPA-ACT (activity and energy) Emax” value stood at 2.52 ± 0.46 points; the “VESSPA-PS (psychotic symptoms) Emax” value is given as 0.38 ± 0.50 points. In addition, in data set [3] (AUC0–5h), the “VESSPA ANX (psychosomatic anxiety) AUC0-5/6 h” value came out at 3.01 ± 0.95 points·h; the “VESSPA CP (changes in perception) AUC0-5/6 h” value stood at 0.06 ± 0.18 points·h; the “VESSPA S (sedation) AUC0-5/6 h” value amounted to 1.69 ± 1.43 points·h; the “VESSPA SOC (pleasure and sociability) AUC0-5/6 h” value is given as 7.74 ± 3.00 points·h. Further, in data set [3] (AUC0–5h), the “VESSPA-ACT (activity and energy) AUC0-5/6 h” value stood at 5.93 ± 2.65 points·h; the “VESSPA-PS (psychotic symptoms) AUC0-5/6 h” value is listed as 1.15 ± 2.02 points·h.

Take `CNC(C)C(=O)c1ccc2c(c1)OCO2` (stereo not shown) [Methylone, 3,4-methylenedioxy-N-methylcathinone]: in data set [4] (naturalistic and controlled environments), the “Persistence of heart rate increases” value is 8 to 10 h. Moreover, the “Time of peak effects following self-administration” value in data set [4] (naturalistic conditions) is 2 h.
